The values below come from US9777005B2 (Takeda Pharmaceutical Company Limited, priority 2012, dated 2017).

The assay concerns the target T1, human M1 receptor (hCHRM1) (Homo sapiens, UniProt P11229).
T1 construct: expressed in transfected cells; host or cells: CHO-K1
T1 sequence (P11229 1-460): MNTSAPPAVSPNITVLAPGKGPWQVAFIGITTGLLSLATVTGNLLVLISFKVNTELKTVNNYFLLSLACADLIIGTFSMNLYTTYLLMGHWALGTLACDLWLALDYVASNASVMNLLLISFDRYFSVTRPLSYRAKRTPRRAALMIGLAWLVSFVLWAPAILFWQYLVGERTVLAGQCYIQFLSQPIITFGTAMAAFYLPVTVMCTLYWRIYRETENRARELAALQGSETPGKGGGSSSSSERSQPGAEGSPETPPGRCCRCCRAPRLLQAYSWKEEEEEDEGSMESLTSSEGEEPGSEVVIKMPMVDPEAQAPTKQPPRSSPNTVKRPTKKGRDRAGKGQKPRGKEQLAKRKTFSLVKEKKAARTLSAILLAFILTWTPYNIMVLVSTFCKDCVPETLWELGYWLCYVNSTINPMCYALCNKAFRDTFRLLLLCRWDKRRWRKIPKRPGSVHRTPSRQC
As to the kind of experiment: Measurement of M1 receptor positive allosteric modulator (M1PAM) activity, calcium fluorescence (FLIPRtetra) in CHO-K1 cells in the presence of acetylcholine at EC20. Format: cell-based. Conditions: in the presence of acetylcholine at EC20 (final 0.6 nM), CHO-K1 cells expressing hCHRM1; for EC50: inflection point of M1PAM activity, read-out: IP value; for activity (%) at 10 μM: test compound 10 μM. The method, then:
Measurement of M1 Receptor Positive Allosteric Modulator (M1PAM) Activity
The activity of a test compound in the presence of acetylcholine at EC20 concentration (final concentration 0.6 nM), which affords an action corresponding to 20% of the maximum activity, was measured as PAM activity. The method is as follows. CHO-K1 cells forcibly expressing a human M1 receptor (hCHRM1) were plated on a 384-well black clear bottom plate (BD Falcon) at 5,000 cells/well, and cultured in an incubator at 37° C., 5% CO2 for 1 day. The medium in the cell plate was removed, and assay buffer A (Recording medium (DOJINDO LABORATORIES), 0.1% BSA (Wako Pure Chemical Industries, Ltd.), 2.5 μg/mL Fluo-4 AM (DOJINDO LABORATORIES), 0.08% Pluronic F127 (DOJINDO LABORATORIES), 1.25 mM probenecid (DOJINDO LABORATORIES)) containing a calcium indicator was added at 30 μL/well. The cells were left standing in the incubator at 37° C., 5% CO2 for 30 min, and further left standing at room temperature for 30 min. A test compound prepared by diluting with assay buffer B (HBSS (Invitrogen), 20 mM HEPES (Invitrogen), 0.1% BSA) containing 2.4 nM acetylcholine was added at 10 μL/well, and the fluorescence was measured by FLIPRtetra (Molecular Devices) for 1 min every 1 second. With the definition that the amount of change in the fluorescence on addition of acetylcholine (final concentration 1 μM) is 100% and that on addition of DMSO instead of a test compound is 0%, the activity (%) of the test compound and the inflection point in the concentration-dependent curve of the test compound were calculated as IP values.

Turning to “1,5-anhydro-2-deoxy-3-O-(3-oxo-2-(4-(1H-pyrazol-1-yl)benzyl)-2,3-dihydro-1H-isoindol-4-yl)-threo-pentitol [Example 239]”, the EC50 is 6.1 nM and the “activity (%) at 10 μM” value was 109%.

“1,5-anhydro-2-deoxy-4-O-(3-oxo-2-(4-(1H-pyrazol-1-yl)benzyl)-2,3-dihydro-1H-isoindol-4-yl)-threo-pentitol [Example 241]”: the EC50 amounted to 13 nM and the “activity (%) at 10 μM” value came to 101%.

Turning to `Cn1cc(-c2ccc(CN3Cc4cccc(O[C@H]5CCCC[C@@H]5O)c4C3=O)cc2)cn1` (relative stereo) [Example 1, 7-((trans-2-hydroxycyclohexyl)oxy)-2-(4-(1-methyl-1H-pyrazol-4-yl)benzyl)isoindolin-1-one], the EC50 was 7 nM and the “activity (%) at 10 μM” value is listed as 102%.

Take `Cn1cc(-c2ccc(CN3Cc4cccc(O[C@H]5CCC(F)(F)C[C@@H]5O)c4C3=O)cc2)cn1` (relative stereo) [Example 2, 7-((trans-4,4-difluoro-2-hydroxycyclohexyl)oxy)-2-(4-(1-methyl-1H-pyrazol-4-yl)benzyl)isoindolin-1-one]: the EC50 came out at 8.7 nM and the “activity (%) at 10 μM” value is reported as 105%.

For the molecule `Cn1cc(-c2ccc(CN3Cc4cccc(O[C@H]5CCCCC[C@@H]5O)c4C3=O)cc2)cn1` (relative stereo) [Example 3, 7-((trans-2-hydroxycycloheptyl)oxy)-2-(4-(1-methyl-1H-pyrazol-4-yl)benzyl)isoindolin-1-one], the EC50 is 9.1 nM and the “activity (%) at 10 μM” value stood at 104%.

Consider `Cn1cc(-c2ccc(CN3Cc4cccc(O[C@H]5CCC[C@@H]5O)c4C3=O)cc2)cn1` (relative stereo) [Example 4, 7-((trans-2-hydroxycyclopentyl)oxy)-2-(4-(1-methyl-1H-pyrazol-4-yl)benzyl)isoindolin-1-one], for which the EC50 was 13 nM and the “activity (%) at 10 μM” value is 101%.

For the molecule `Cn1cc(-c2ccc(CN3Cc4cccc(O[C@H]5CCCC(F)(F)[C@@H]5O)c4C3=O)cc2)cn1` (relative stereo) [Example 7, 7-((trans-3,3-difluoro-2-hydroxycyclohexyl)oxy)-2-(4-(1-methyl-1H-pyrazol-4-yl)benzyl)isoindolin-1-one], the EC50 is 32 nM and the “activity (%) at 10 μM” value was 114%.

On to `O=C1c2c(cccc2O[C@H]2CCCC[C@@H]2O)CN1Cc1ccc(Br)cc1` (relative stereo) [Example 25, 2-(4-bromobenzyl)-7-((trans-2-hydroxycyclohexyl)oxy)isoindolin-1-one], for which the EC50 stood at 190 nM and the “activity (%) at 10 μM” value was found to be 113%.

With `O=C1c2c(cccc2O[C@H]2CCCC[C@@H]2O)CN1Cc1ccc(-c2cn[nH]c2)cc1` (relative stereo) [Example 26, 7-((trans-2-hydroxycyclohexyl)oxy)-2-(4-(1H-pyrazol-4-yl)benzyl)isoindolin-1-one], the EC50 came out at 4.1 nM and the “activity (%) at 10 μM” value turned out to be 96%.

Consider `Cn1cc(-c2ccc(CN3Cc4cccc(O[C@H]5CCCC[C@@H]5O)c4C3=O)cn2)cn1` (relative stereo) [Example 27], for which the EC50 turned out to be 6.4 nM and the “activity (%) at 10 μM” value was determined as 97%.

`Cn1cc(-c2ccc(CN3Cc4cccc(O[C@H]5CCCC[C@@H]5O)c4C3=O)s2)cn1` (relative stereo) [Example 28, 7-((trans-2-hydroxycyclohexyl)oxy)-2-((5-(1-methyl-1H-pyrazol-4-yl)-2-thienyl)methyl)isoindolin-1-one]: the EC50 amounted to 7 nM and the “activity (%) at 10 μM” value stood at 120%.

For `O=C1c2c(cccc2O[C@H]2CCCC[C@@H]2O)CN1Cc1ccc(-n2cccn2)cc1` (relative stereo) [Example 29, 7-((trans-2-hydroxycyclohexyl)oxy)-2-(4-(1H-pyrazol-1-yl)benzyl)isoindolin-1-one], the EC50 stood at 7.5 nM and the “activity (%) at 10 μM” value worked out at 89%.

With `O=C1c2c(cccc2O[C@H]2CCCC[C@@H]2O)CN1Cc1ccc(-c2ccnn2C2CCCCO2)cc1` (relative stereo) [Example 30, 7-((trans-2-hydroxycyclohexyl)oxy)-2-(4-(1-(tetrahydro-2H-pyran-2-yl)-1H-pyrazol-5-yl)benzyl)isoindolin-1-one], the EC50 came to 190 nM and the “activity (%) at 10 μM” value was 104%.

For `O=C1c2c(cccc2O[C@H]2CCCC[C@@H]2O)CN1Cc1ccc(-c2ccn[nH]2)cc1` (relative stereo) [Example 31, 7-((trans-2-hydroxycyclohexyl)oxy)-2-(4-(1H-pyrazol-5-yl)benzyl)isoindolin-1-one], the EC50 stood at 8.5 nM and the “activity (%) at 10 μM” value stood at 105%.

For `Cc1ccn(-c2ccc(CN3Cc4cccc(O[C@H]5CCCC[C@@H]5O)c4C3=O)cc2)n1` (relative stereo) [Example 32, 7-((trans-2-hydroxycyclohexyl)oxy)-2-(4-(3-methyl-1H-pyrazol-1-yl)benzyl)isoindolin-1-one], the EC50 turned out to be 10 nM and the “activity (%) at 10 μM” value is 110%.

For the molecule `N#Cc1ccc(CN2Cc3cccc(O[C@H]4CCCC[C@@H]4O)c3C2=O)cc1` (relative stereo) [Example 33, 4-((7-((trans-2-hydroxycyclohexyl)oxy)-1-oxo-1,3-dihydro-2H-isoindol-2-yl)methyl)benzonitrile], the EC50 was determined as 77 nM and the “activity (%) at 10 μM” value is listed as 98%.

As for `NC(=O)c1ccc(CN2Cc3cccc(O[C@H]4CCCC[C@@H]4O)c3C2=O)cc1` (relative stereo) [Example 34, 4-((7-((trans-2-hydroxycyclohexyl)oxy)-1-oxo-1,3-dihydro-2H-isoindol-2-yl)methyl)benzamide], the EC50 was 10 nM and the “activity (%) at 10 μM” value stood at 92%.

For `Cn1ccc(-c2ccc(CN3Cc4cccc(O[C@H]5CCCC[C@@H]5O)c4C3=O)cc2)n1` (relative stereo) [Example 35, 7-((trans-2-hydroxycyclohexyl)oxy)-2-(4-(1-methyl-1H-pyrazol-3-yl)benzyl)isoindolin-1-one], the EC50 turned out to be 14 nM and the “activity (%) at 10 μM” value worked out at 134%.

As for `Cn1cc(-c2cccc(CN3Cc4cccc(O[C@H]5CCCC[C@@H]5O)c4C3=O)c2)cn1` (relative stereo) [Example 39, 7-((trans-2-hydroxycyclohexyl)oxy)-2-(3-(1-methyl-1H-pyrazol-4-yl)benzyl)isoindolin-1-one], the EC50 was found to be 58 nM and the “activity (%) at 10 μM” value was 97%.

Take `Cc1ccn(-c2ccc(CN3Cc4cccc(O[C@H]5CCC[C@@H]5O)c4C3=O)cc2)n1` (relative stereo) [Example 40, 7-((trans-2-hydroxycyclopentyl)oxy)-2-(4-(3-methyl-1H-pyrazol-1-yl)benzyl)isoindolin-1-one]: the EC50 was 64 nM and the “activity (%) at 10 μM” value is given as 117%.

For the molecule `O=C1c2c(cccc2O[C@H]2CCCC[C@@H]2O)CN1Cc1ccc(Cl)nc1` (relative stereo) [Example 43, 2-((6-chloropyridin-3-yl)methyl)-7-((trans-2-hydroxycyclohexyl)oxy)isoindolin-1-one], the EC50 came out at 210 nM and the “activity (%) at 10 μM” value was 99%.
